# Test results: ChEMBL document CHEMBL4800722, “Data for DCP probe BI 605906” (2021)
# How the values were obtained:
# [1] = molecular target: Mitogen-activated protein kinase kinase kinase 19 (Homo sapiens) (UniProt Q56UN5); details: Compound concentration 1.0 uM
# [2] = molecular target: Mitogen-activated protein kinase kinase kinase 2 (Homo sapiens) (UniProt Q9Y2U5); details: Compound concentration 1.0 uM
# [3] = molecular target: Mitogen-activated protein kinase kinase kinase kinase 5 (Homo sapiens) (UniProt Q9Y4K4); details: Compound concentration 1.0 uM
# [4] = molecular target: Adrenergic receptor beta (Rattus norvegicus) (UniProt P18090+P10608+P26255)
# [5] = molecular target: Phosphodiesterase 4 (Homo sapiens) (UniProt P27815+Q08499+Q07343+Q08493); assay: PDE-IV/HU Eurofins SafetyScreen44 (BI); format: protein assay; details: Compound concentration 10.0 uM
# [6] = molecular target: MAP kinase-activated protein kinase 5 (Homo sapiens) (UniProt Q8IW41); assay: PRAK DUNDEE kinase screen (BI); details: Compound concentration 10.0 uM
# [7] = molecular target: Tyrosine-protein kinase JAK1 (Homo sapiens) (UniProt P23458); details: Compound concentration 1.0 uM
# Tyrosine-protein kinase JAK1 (Homo sapiens), sequence (P23458 whole entry): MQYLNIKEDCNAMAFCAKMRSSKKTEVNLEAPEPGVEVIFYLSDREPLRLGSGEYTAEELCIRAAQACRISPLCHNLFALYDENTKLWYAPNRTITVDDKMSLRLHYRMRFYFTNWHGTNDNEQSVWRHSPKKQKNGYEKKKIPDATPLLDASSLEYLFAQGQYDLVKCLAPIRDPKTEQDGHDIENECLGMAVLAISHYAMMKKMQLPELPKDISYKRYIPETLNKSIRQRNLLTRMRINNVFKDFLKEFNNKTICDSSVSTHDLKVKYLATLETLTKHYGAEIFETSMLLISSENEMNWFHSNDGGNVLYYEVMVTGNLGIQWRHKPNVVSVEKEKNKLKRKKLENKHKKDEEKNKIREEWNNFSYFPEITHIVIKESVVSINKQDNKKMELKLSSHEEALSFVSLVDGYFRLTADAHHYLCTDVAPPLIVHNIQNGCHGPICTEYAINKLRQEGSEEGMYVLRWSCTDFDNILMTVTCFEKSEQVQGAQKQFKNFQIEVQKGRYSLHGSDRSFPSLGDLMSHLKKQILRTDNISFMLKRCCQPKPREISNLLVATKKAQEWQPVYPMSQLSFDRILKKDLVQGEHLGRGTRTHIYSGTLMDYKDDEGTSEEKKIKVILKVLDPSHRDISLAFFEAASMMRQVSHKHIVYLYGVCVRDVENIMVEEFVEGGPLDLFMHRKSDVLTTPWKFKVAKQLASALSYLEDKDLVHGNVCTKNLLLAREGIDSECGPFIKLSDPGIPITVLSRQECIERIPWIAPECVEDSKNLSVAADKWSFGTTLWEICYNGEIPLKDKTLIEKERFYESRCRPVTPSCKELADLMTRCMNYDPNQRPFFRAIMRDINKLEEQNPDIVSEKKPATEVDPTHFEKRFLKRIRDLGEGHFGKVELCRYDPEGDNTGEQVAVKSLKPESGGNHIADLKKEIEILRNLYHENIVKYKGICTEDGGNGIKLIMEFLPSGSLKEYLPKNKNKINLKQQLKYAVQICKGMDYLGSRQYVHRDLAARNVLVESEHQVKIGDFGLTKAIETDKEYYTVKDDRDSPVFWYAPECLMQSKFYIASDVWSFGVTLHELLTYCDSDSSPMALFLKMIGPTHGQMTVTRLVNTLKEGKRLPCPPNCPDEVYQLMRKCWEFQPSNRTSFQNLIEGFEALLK
# [8] = molecular target: AMPK alpha1/beta2/gamma1 (Homo sapiens) (UniProt O43741+P54619+Q13131); details: Compound concentration 1.0 uM
# [9] = molecular target: Collagenase 3 (Homo sapiens) (UniProt P45452); details: Compound concentration 10.0 uM
# [10] = tested on: Serine/threonine-protein kinase B-raf (Homo sapiens), P15056 [V600E]; assay: BRAF V599E Invitrogen Lab (UK) kinase screen (BI); details: Compound concentration 10.0 uM
# Rattus norvegicus = species on record: Rattus norvegicus; details: Compound concentration 10.0 uM
# [11] = molecular target: Adrenergic receptor alpha-1 (Rattus norvegicus) (UniProt P15823+P23944+P43140)
# [12] = molecular target: Mitogen-activated protein kinase 11 (Homo sapiens) (UniProt Q15759); details: Compound concentration 1.0 uM
# [13] = molecular target: Serine/threonine-protein kinase Nek1 (Homo sapiens) (UniProt Q96PY6)
# Serine/threonine-protein kinase Nek1 (Homo sapiens), sequence (Q96PY6 whole entry): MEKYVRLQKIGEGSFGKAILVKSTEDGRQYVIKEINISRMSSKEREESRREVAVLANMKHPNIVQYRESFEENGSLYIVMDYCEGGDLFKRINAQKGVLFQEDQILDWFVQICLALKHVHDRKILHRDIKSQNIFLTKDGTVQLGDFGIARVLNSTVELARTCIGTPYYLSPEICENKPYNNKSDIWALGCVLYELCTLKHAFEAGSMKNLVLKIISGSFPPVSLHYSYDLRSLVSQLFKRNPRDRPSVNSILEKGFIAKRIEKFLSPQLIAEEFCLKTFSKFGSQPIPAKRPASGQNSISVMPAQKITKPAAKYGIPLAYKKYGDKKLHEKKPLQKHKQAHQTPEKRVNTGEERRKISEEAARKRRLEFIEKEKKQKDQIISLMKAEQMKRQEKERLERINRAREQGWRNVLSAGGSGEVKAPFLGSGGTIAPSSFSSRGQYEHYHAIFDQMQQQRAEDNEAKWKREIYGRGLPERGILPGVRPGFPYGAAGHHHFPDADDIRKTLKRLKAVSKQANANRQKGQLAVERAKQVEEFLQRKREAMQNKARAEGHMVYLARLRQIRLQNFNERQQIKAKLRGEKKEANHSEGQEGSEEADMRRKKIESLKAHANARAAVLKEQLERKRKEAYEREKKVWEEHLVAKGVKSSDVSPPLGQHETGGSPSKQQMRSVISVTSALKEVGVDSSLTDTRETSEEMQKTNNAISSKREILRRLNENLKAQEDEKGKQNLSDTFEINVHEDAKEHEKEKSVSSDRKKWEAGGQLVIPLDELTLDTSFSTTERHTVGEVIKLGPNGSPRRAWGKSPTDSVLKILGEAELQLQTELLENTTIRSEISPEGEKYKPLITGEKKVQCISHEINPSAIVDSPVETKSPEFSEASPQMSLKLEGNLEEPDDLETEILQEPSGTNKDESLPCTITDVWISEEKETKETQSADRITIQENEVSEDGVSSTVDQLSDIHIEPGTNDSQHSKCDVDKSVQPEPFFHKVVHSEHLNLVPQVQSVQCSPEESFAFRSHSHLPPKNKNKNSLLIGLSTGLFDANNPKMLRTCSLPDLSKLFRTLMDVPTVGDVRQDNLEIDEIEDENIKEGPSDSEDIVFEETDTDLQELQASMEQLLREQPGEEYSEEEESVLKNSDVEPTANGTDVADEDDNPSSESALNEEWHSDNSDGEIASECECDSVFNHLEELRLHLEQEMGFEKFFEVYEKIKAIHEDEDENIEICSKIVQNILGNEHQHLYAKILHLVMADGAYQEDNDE
# [14] = molecular target: MAP kinase-activated protein kinase 2 (Homo sapiens) (UniProt P49137); assay: MAPKAPK2 DUNDEE kinase screen (BI); details: Compound concentration 10.0 uM
# MAP kinase-activated protein kinase 2 (Homo sapiens), sequence (P49137 whole entry, looked up): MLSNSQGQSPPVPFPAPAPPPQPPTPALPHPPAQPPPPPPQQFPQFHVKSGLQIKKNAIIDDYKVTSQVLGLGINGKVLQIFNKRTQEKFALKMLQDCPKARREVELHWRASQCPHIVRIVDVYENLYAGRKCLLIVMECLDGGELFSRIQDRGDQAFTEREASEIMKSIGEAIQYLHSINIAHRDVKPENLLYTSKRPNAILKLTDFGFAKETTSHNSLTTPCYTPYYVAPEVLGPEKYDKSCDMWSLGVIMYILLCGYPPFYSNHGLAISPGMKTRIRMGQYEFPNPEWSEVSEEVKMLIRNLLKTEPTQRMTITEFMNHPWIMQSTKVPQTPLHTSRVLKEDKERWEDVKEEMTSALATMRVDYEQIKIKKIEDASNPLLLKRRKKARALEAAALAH
# [15] = molecular target: Receptor-interacting serine/threonine-protein kinase 2 (Homo sapiens) (UniProt O43353); details: Compound concentration 1.0 uM
# [16] = molecular target: AMP-activated protein kinase, AMPK (Rattus norvegicus) (UniProt P54645+Q09137+P80386+P80385+Q9QZH4+Q6V7V4+D4A7E4); assay: AMPK DUNDEE kinase screen (BI); format: protein-complex assay; details: Compound concentration 10.0 uM
# [17] = GPCRScan assay: inhibition of GABA/PBR; set-up: species or system Rattus norvegicus; radioligand conc. used [nm] 0.3 – 2.0, parental cells brain tissue
# [18] = molecular target: SRSF protein kinase 1 (Homo sapiens) (UniProt Q96SB4); details: Compound concentration 1.0 uM
# [19] = molecular target: Ribosomal protein S6 kinase alpha-5 (Homo sapiens) (UniProt O75582); assay: MSK1 DUNDEE kinase screen (BI); details: Compound concentration 10.0 uM
# [20] = molecular target: T1, Interleukin-1 receptor-associated kinase 3 (Homo sapiens) (UniProt Q9Y616)
# T1 sequence (whole entry): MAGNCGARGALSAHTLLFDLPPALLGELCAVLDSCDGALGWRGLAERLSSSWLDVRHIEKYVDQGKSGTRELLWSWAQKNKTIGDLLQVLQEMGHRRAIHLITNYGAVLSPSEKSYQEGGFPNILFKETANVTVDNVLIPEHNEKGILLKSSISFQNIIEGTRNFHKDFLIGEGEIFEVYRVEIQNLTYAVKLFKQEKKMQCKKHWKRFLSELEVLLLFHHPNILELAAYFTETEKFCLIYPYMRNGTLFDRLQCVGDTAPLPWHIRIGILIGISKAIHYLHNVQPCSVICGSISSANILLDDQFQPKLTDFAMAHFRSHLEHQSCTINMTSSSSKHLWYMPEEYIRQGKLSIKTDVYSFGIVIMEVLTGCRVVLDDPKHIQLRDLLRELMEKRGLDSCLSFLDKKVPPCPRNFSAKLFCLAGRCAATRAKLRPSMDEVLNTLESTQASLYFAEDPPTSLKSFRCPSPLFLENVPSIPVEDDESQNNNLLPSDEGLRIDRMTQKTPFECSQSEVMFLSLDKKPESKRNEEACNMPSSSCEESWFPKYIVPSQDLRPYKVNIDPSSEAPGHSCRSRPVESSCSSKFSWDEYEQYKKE
# [21] = molecular target: Calcium/calmodulin-dependent protein kinase type 1 (Homo sapiens) (UniProt Q14012); details: Compound concentration 1.0 uM
# [22] = molecular target: Vascular endothelial growth factor receptor 1 (Homo sapiens) (UniProt P17948); details: Compound concentration 1.0 uM
# [23] = molecular target: Ephrin type-B receptor 3 (Homo sapiens) (UniProt P54753); details: Compound concentration 1.0 uM
# Ephrin type-B receptor 3 (Homo sapiens), sequence (P54753 whole entry): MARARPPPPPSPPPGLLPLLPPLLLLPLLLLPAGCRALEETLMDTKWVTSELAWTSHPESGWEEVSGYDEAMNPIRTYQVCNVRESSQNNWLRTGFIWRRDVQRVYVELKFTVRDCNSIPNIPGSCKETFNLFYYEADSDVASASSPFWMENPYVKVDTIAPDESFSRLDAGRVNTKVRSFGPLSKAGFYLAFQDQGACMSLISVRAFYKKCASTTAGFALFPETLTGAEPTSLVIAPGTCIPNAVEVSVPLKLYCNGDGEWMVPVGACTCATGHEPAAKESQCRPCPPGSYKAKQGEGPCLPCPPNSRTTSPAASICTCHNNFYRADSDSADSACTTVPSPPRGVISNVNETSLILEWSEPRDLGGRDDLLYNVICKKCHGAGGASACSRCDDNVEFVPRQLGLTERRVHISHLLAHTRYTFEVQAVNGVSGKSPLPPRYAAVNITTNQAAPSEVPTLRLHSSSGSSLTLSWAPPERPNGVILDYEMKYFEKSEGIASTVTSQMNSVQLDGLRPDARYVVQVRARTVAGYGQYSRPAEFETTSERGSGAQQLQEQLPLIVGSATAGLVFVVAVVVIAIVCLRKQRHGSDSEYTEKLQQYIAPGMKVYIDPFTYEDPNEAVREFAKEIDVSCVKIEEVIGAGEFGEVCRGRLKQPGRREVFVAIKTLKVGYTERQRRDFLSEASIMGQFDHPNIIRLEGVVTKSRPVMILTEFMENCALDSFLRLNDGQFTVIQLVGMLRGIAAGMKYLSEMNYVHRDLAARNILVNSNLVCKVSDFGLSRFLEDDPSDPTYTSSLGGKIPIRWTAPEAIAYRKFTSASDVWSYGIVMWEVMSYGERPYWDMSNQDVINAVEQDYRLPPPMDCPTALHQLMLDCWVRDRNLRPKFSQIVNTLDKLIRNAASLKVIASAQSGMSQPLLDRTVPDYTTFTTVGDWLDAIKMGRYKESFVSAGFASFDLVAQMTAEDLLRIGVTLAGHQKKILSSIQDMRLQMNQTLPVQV
# [24] = molecular target: Serine/threonine-protein kinase WNK1 (Homo sapiens) (UniProt Q9H4A3); details: Compound concentration 1.0 uM
# [25] = molecular target: 5-hydroxytryptamine receptor 4 (Cavia porcellus) (UniProt O70528); details: Compound concentration 10.0 uM
# [26] = molecular target: Serine/threonine-protein kinase PAK 5 (Homo sapiens) (UniProt Q9P286); details: Compound concentration 1.0 uM
# Serine/threonine-protein kinase PAK 5 (Homo sapiens), sequence (Q9P286 whole entry, looked up): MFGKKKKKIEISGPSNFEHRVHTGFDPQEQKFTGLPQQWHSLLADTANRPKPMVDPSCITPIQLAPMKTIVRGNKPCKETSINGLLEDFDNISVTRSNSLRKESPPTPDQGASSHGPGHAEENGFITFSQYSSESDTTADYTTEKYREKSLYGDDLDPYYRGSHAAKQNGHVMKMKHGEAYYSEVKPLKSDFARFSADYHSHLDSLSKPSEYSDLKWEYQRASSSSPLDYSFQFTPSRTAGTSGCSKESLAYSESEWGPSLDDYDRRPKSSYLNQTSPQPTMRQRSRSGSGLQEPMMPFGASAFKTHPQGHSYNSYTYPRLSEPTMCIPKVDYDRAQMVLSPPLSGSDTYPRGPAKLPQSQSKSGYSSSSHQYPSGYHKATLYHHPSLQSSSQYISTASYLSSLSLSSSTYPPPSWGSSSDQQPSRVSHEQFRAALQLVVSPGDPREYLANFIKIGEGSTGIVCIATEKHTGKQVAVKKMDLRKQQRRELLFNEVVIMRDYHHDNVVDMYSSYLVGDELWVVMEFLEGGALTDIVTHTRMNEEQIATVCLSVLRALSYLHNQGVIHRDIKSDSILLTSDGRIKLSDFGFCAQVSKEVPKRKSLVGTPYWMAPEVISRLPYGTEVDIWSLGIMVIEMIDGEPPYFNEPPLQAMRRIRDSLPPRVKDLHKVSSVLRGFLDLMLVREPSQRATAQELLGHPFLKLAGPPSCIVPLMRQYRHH
# [27] = molecular target: Activin receptor type-1B (Homo sapiens) (UniProt P36896)
# Activin receptor type-1B (Homo sapiens), sequence (P36896 whole entry): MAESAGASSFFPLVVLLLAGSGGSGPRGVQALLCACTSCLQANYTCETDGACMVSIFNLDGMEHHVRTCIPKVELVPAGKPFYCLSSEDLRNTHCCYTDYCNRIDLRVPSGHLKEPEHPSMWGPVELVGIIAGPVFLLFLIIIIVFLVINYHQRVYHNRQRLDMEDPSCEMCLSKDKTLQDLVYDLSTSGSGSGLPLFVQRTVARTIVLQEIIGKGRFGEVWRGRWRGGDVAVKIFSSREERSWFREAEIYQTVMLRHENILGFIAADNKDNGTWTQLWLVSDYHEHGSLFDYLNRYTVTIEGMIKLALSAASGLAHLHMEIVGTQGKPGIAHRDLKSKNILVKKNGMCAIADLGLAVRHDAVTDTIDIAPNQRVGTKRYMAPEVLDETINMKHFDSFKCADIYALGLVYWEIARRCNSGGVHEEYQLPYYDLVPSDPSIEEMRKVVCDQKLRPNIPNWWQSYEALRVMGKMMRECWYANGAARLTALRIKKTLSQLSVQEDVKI
# [28] = molecular target: Mitogen-activated protein kinase 7 (Homo sapiens) (UniProt Q13164); details: Compound concentration 1.0 uM
# [29] = Compound concentration 100.0 uM
structure (smiles),measurement,setting,value
CCC(F)(F)c1cc(N2CCC(S(C)(=O)=O)CC2)nc2sc(C(N)=O)c(N)c12 [BI-605906],residual activity,[1],98%
same,residual activity,[2],92%
same,residual activity,[3],101%
same,residual activity,[4]; Compound concentration 10.0 uM,86%
same,residual activity,[4]; [29],94%
same,residual activity,[5],68%
same,residual activity,[6],61.1%
same,residual activity,[7],98%
same,residual activity,[8],91%
same,residual activity,[9],90%
same,residual activity,[10],34%
same,residual activity,Rattus norvegicus,97%
same,residual activity,[11]; Compound concentration 10.0 uM,109%
same,residual activity,[11]; [29],93%
same,residual activity,[12],98%
same,residual activity,[13]; Compound concentration 1.0 uM,92%
same,residual activity,[13]; Compound concentration 10.0 uM,30%
same,residual activity,[14],94.5%
same,residual activity,[15],94%
same,residual activity,[16],79.2%
same,Ki,[17],2620 nM
same,pKi,[17],5.59
same,residual activity,[18],99%
same,residual activity,[19],86.6%
same,residual activity,[20]; Compound concentration 0.001 uM,93%
same,residual activity,[20]; Compound concentration 1.0 uM,24%
same,residual activity,[20]; Compound concentration 20.0 uM,14%
same,residual activity,[21],109%
same,residual activity,[22],100%
same,residual activity,[23],99%
same,residual activity,[24],99%
same,residual activity,[25],98%
same,residual activity,[26],93%
same,residual activity,[27]; Compound concentration 1.0 uM,96%
same,residual activity,[27]; Compound concentration 10.0 uM,105%
same,residual activity,[28],98%
